PubChem BioAssay AID256 (DTP/NCI, 2004)
Values joined by “and” are separate entries in the source; they are usually repeats but may differ in a detail not shown here. Equal entries are not always repeated. Toxic doses and inconclusive results are not listed. The calls were made as follows: active = survival T/C of 150% or more; inactive = T/C below 125% in these data.

Tested on: CD2F1 mice, L1210 leukemia ip, survival T/C
Test: NCI In Vivo Anticancer Drug Screen. Data for tumor model L1210 Leukemia (intraperitoneal) in CD2F1 (CDF1) mice
Details: higher = longer survival
Summary of the method: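 Tumor-bearing mice (transplanted tumor) were split into treated and vehicle control groups, and the measured endpoint of each treated group was divided by that of its vehicle controls.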

[1] = endpoint: mean survival time, dose: 100.0 mg/kg/injection, schedule: Q04DX002 (ip), vehicle: saline with Tween-80
[2] = endpoint: mean survival time, dose: 200.0 mg/kg/injection, schedule: Q04DX003 (ip), vehicle: saline with Tween-80
[3] = endpoint: mean survival time, dose: 400.0 mg/kg/injection, schedule: Q04DX003 (ip), vehicle: saline with Tween-80
[4] = endpoint: mean survival time, dose: 12.5 mg/kg/injection, schedule: Q01DX009 (ip), vehicle: saline with Tween-80
[5] = endpoint: mean survival time, dose: 25.0 mg/kg/injection, schedule: Q01DX009 (ip), vehicle: saline with Tween-80
[6] = endpoint: mean survival time, dose: 50.0 mg/kg/injection, schedule: Q01DX009 (ip), vehicle: saline with Tween-80
[7] = endpoint: mean survival time, dose: 100.0 mg/kg/injection, schedule: Q01DX009 (ip), vehicle: saline with Tween-80
[8] = endpoint: mean survival time, dose: 200.0 mg/kg/injection, schedule: Q01DX009 (ip), vehicle: saline with Tween-80
[9] = endpoint: mean survival time, dose: 100.0 mg/kg/injection, schedule: Q04DX003 (ip), vehicle: saline with Tween-80
[10] = endpoint: mean survival time, dose: 100.0 mg/kg/injection, schedule: Q01DX001 (ip), vehicle: saline with Tween-80
[11] = endpoint: mean survival time, dose: 200.0 mg/kg/injection, schedule: Q01DX001 (ip), vehicle: saline with Tween-80
[12] = endpoint: mean survival time, dose: 100.0 mg/kg/injection, schedule: Q01DX001 (ip), vehicle: saline
[13] = endpoint: mean survival time, dose: 200.0 mg/kg/injection, schedule: Q01DX001 (ip), vehicle: saline
[14] = endpoint: mean survival time, dose: 400.0 mg/kg/injection, schedule: Q01DX001 (ip), vehicle: saline
[15] = endpoint: mean survival time, dose: 400.0 mg/kg/injection, schedule: Q01DX009 (ip), vehicle: saline with Tween-80
[16] = endpoint: mean survival time, dose: 200.0 mg/kg/injection, schedule: Q04DX002 (ip), vehicle: saline with Tween-80
[17] = endpoint: mean survival time, dose: 400.0 mg/kg/injection, schedule: Q04DX002 (ip), vehicle: saline with Tween-80
[18] = endpoint: mean survival time, dose: 100.0 mg/kg/injection, schedule: Q01DX001 (ip), vehicle: Klucel (hydroxypropylcellulose) (HPC)
[19] = endpoint: mean survival time, dose: 200.0 mg/kg/injection, schedule: Q01DX001 (ip), vehicle: Klucel (hydroxypropylcellulose) (HPC)
[20] = endpoint: mean survival time, dose: 400.0 mg/kg/injection, schedule: Q01DX001 (ip), vehicle: Klucel (hydroxypropylcellulose) (HPC)

Measured: T/C

O=P(CP(c1ccccc1)c1ccccc1)(c1ccccc1)c1ccccc1
inactive: endpoint: mean survival time, dose: 25.0 mg/kg/injection, schedule: Q04DX002 (ip), vehicle: saline with Tween-80 96 % of control | endpoint: mean survival time, dose: 50.0 mg/kg/injection, schedule: Q04DX002 (ip), vehicle: saline with Tween-80 92 % of control | [1] 92 % of control

Cc1cccc(SCC(=O)O)c1
inactive: endpoint: mean survival time, dose: 100.0 mg/kg/injection, schedule: Q04DX003 (ip), vehicle: other 96 % of control | endpoint: mean survival time, dose: 200.0 mg/kg/injection, schedule: Q04DX003 (ip), vehicle: other 96 % of control | endpoint: mean survival time, dose: 400.0 mg/kg/injection, schedule: Q04DX003 (ip), vehicle: other 94 % of control

NS(=O)(=O)c1cc(Cl)cc(Cl)c1O
inactive: [2] 91 % of control | [3] 93 % of control

CN(CN1C(=O)CCC1=O)CN1C(=O)CCC1=O
inactive: endpoint: median survival time, dose: 50.0 mg/kg/injection, schedule: Q01DX005 (ip), vehicle: saline 105 % of control | endpoint: median survival time, dose: 100.0 mg/kg/injection, schedule: Q01DX005 (ip), vehicle: saline 113 % of control | endpoint: median survival time, dose: 200.0 mg/kg/injection, schedule: Q01DX005 (ip), vehicle: saline 121 % of control | endpoint: median survival time, dose: 400.0 mg/kg/injection, schedule: Q01DX005 (ip), vehicle: saline 121 % of control

CCOC(=O)C(CCC(=O)OC)(CCC(=O)OC)C(=O)OCC
inactive: endpoint: mean survival time, dose: 100.0 mg/kg/injection, schedule: Q01DX005 (ip), vehicle: other 95 % of control | endpoint: mean survival time, dose: 100.0 mg/kg/injection, schedule: Q01DX009 (ip), vehicle: other 101 % of control | endpoint: mean survival time, dose: 100.0 mg/kg/injection, schedule: Q04DX002 (ip), vehicle: other 88 % of control | endpoint: mean survival time, dose: 200.0 mg/kg/injection, schedule: Q01DX005 (ip), vehicle: other 91 % of control | endpoint: mean survival time, dose: 200.0 mg/kg/injection, schedule: Q01DX009 (ip), vehicle: other 97 % of control | endpoint: mean survival time, dose: 200.0 mg/kg/injection, schedule: Q04DX002 (ip), vehicle: other 92 % of control | endpoint: mean survival time, dose: 400.0 mg/kg/injection, schedule: Q01DX005 (ip), vehicle: other 91 % of control | endpoint: mean survival time, dose: 400.0 mg/kg/injection, schedule: Q01DX009 (ip), vehicle: other 86 % of control | endpoint: mean survival time, dose: 400.0 mg/kg/injection, schedule: Q04DX002 (ip), vehicle: other 95 % of control

COc1cc(OC)c(NC(=O)Oc2ccc(C(C)(C)C)cc2Br)cc1Cl
inactive: [4] 97 % of control | [5] 102 % of control | [6] 94 % of control | [7] 93 % of control | [8] 86 % of control

CCc1ccc(C(C)(C)C)cc1
inactive: [9] 99 % of control | [2] 105 % of control

COC(=O)C1C2CCc3cc(OC)ccc3C2CC(=O)C1(C)C(=O)OC (stereo unspecified)
inactive: endpoint: mean survival time, dose: 100.0 mg/kg/injection, schedule: Q04DX003 (sc), vehicle: steriod suspending solution 103 % of control | endpoint: mean survival time, dose: 200.0 mg/kg/injection, schedule: Q04DX003 (sc), vehicle: steriod suspending solution 95 % of control | endpoint: mean survival time, dose: 400.0 mg/kg/injection, schedule: Q04DX003 (sc), vehicle: steriod suspending solution 104 % of control

COc1cc2c(cc1OC)C(CCN)NCC2 (stereo unspecified)
inactive: [10] 97 % of control | [11] 100 % of control | endpoint: mean survival time, dose: 400.0 mg/kg/injection, schedule: Q01DX001 (ip), vehicle: saline with Tween-80 94 % of control

CCOC(=O)c1cc(-c2ccccc2)nc2c(Cl)cc(Cl)cc12
inactive: [12] 94 % of control | [13] 90 % of control | [14] 96 % of control

C=CCC1(C)C(=O)CCC2=C1CCc1c(OC)cccc12 (stereo unspecified)
inactive: [12] 90 % of control | [13] 90 % of control | [14] 92 % of control

CCN(CC)CCC(=O)Nc1cccc2c1C(=O)c1c(c(O)c3ccccc3c1O)C2=O
inactive: endpoint: mean survival time, dose: 6.0 mg/kg/injection, schedule: Q04DX003 (ip), vehicle: saline with Tween-80 100 % of control | endpoint: mean survival time, dose: 12.0 mg/kg/injection, schedule: Q04DX003 (ip), vehicle: saline with Tween-80 100 % of control | endpoint: mean survival time, dose: 24.0 mg/kg/injection, schedule: Q04DX003 (ip), vehicle: saline with Tween-80 100 % of control | endpoint: mean survival time, dose: 48.0 mg/kg/injection, schedule: Q04DX003 (ip), vehicle: saline with Tween-80 103 % of control

NC1=NC(=O)CC(=O)N1
inactive: [10] 102 % of control | [11] 103 % of control

CCCCC1(C(C)CC(C)(C)C)NC(C)(C)CC(C)O1 (stereo unspecified)
inactive: endpoint: mean survival time, dose: 25.0 mg/kg/injection, schedule: Q04DX002 (ip), vehicle: saline 104 % of control | endpoint: mean survival time, dose: 50.0 mg/kg/injection, schedule: Q04DX002 (ip), vehicle: saline 101 % of control | endpoint: mean survival time, dose: 100.0 mg/kg/injection, schedule: Q04DX002 (ip), vehicle: saline 89 % of control | [9] 101 % of control

CC(=O)OCC1CCC1
inactive: [7] 95 % of control | [8] 95 % of control | [15] 103 % of control

CCCCNC(=O)C(C)S(=O)(=O)c1ccc(C)cc1 (stereo unspecified)
inactive: [7] 103 % of control | [8] 97 % of control | [15] 95 % of control

CCC(C)CC(O)CC1=CCCCC1 (stereo unspecified)
inactive: [9] 91 % of control | [2] 95 % of control | [3] 106 % of control

C/C(=N\NC(N)=O)c1cccc(/C(C)=N/NC(N)=O)n1
inactive: endpoint: mean survival time, dose: 6.25 mg/kg/injection, schedule: Q01DX009 (ip), vehicle: saline with Tween-80 102 % of control and 103 % of control | [4] 103 % of control and 104 % of control | [5] 100 % of control and 101 % of control | [6] 98 % of control and 103 % of control | [7] 92 % of control and 102 % of control | [8] 91 % of control and 110 % of control

O=C(c1ccc(O)cc1O)c1ccc(O)cc1O
inactive: endpoint: mean survival time, dose: 50.0 mg/kg/injection, schedule: Q01DX009 (ip), vehicle: saline 104 % of control | endpoint: mean survival time, dose: 100.0 mg/kg/injection, schedule: Q01DX009 (ip), vehicle: saline 96 % of control | endpoint: mean survival time, dose: 200.0 mg/kg/injection, schedule: Q01DX009 (ip), vehicle: saline 93 % of control

CC(=O)OC1C(OC(C)=O)C(OC(C)=O)C(OC(C)=O)C(OC(C)=O)C1OC(C)=O (stereo unspecified)
inactive: [1] 100 % of control | [16] 86 % of control | [17] 93 % of control

CC(C)=CC(O)CC(O)(C(F)(F)F)C(F)(F)F (stereo unspecified)
inactive: [18] 94 % of control | [1] 94 % of control | [19] 97 % of control | [16] 94 % of control | [20] 100 % of control | [17] 90 % of control

O=c1cc(Cc2ccccc2)[nH]c(=S)[nH]1
inactive: [18] 94 % of control | [19] 95 % of control | [20] 89 % of control

O=C(O)CC(c1ccccc1)C(CC(=O)O)c1ccccc1.[NH-]C1CCCCC1[NH-].[Pt+2] (stereo unspecified)
inactive: endpoint: median survival time, dose: 3.12 mg/kg/injection, schedule: Q04DX003 (ip), vehicle: saline with Tween-80 107 % of control | endpoint: median survival time, dose: 3.12 mg/kg/injection, schedule: Q04DX003 (ip), vehicle: saline 105 % of control | endpoint: median survival time, dose: 6.25 mg/kg/injection, schedule: Q04DX003 (ip), vehicle: saline with Tween-80 111 % of control | endpoint: median survival time, dose: 6.25 mg/kg/injection, schedule: Q04DX003 (ip), vehicle: saline 102 % of control | endpoint: median survival time, dose: 12.5 mg/kg/injection, schedule: Q04DX003 (ip), vehicle: saline with Tween-80 102 % of control | endpoint: median survival time, dose: 12.5 mg/kg/injection, schedule: Q04DX003 (ip), vehicle: saline 103 % of control | endpoint: median survival time, dose: 25.0 mg/kg/injection, schedule: Q04DX003 (ip), vehicle: saline with Tween-80 111 % of control | endpoint: median survival time, dose: 25.0 mg/kg/injection, schedule: Q04DX003 (ip), vehicle: saline 110 % of control | endpoint: median survival time, dose: 50.0 mg/kg/injection, schedule: Q04DX003 (ip), vehicle: saline with Tween-80 123 % of control | endpoint: median survival time, dose: 50.0 mg/kg/injection, schedule: Q04DX003 (ip), vehicle: saline 110 % of control | endpoint: median survival time, dose: 100.0 mg/kg/injection, schedule: Q04DX003 (ip), vehicle: saline 121 % of control
